In BindingDB's records for doi:10.1016/j.bmc.2019.115177 (National Centre For Scientific Research "Demokritos, 2019):

Columns and labels:
[1] = biological target: Insulin-regulated aminopeptidase (Homo sapiens); test: Competitive inhibition of human recombinant IRAP expressed in baculovirus infected sf9 cells using L-AMC as substrate incubated for 5 to 10 mins by Michaelis-Menten analysis
[2] = biological target: Insulin-regulated aminopeptidase (Homo sapiens); test: Inhibition of human recombinant IRAP expressed in baculovirus infected Sf9 cells using omniMMP fluorogenic substrate incubated for 5 to 10 mins by fluorescence spectrophotometry analysis

With CCCC[C@H](N)C(=O)Nc1cc(C(=O)N[C@@H](Cc2c[nH]c3ccccc23)C(=O)OCc2ccccc2)ccn1 the Ki [1] was 4.6 µM and the IC50 [2] was 8.8 µM.

CC(C)[C@H](NC(=O)Cn1cccc(O)c1=O)C(=O)OCc1ccccc1 was tested, and the Ki [1] was 17.6 µM and the IC50 [2] was 33.6 µM.

With CCCC[C@H](N)C(=O)Nc1cccc(C(=O)N[C@@H](Cc2c[nH]c3ccccc23)C(=O)OCc2ccccc2)c1 the Ki [1] was 3.2 µM and the IC50 [2] was 6.2 µM.

With CCCC[C@H](N)C(=O)Nc1ccc(C(=O)N[C@@H](Cc2c[nH]c3ccccc23)C(=O)OCc2ccccc2)cc1 the IC50 [2] was > 10 µM.

In the case of CCCC[C@H](N)C(=O)NNc1cccc(C(=O)N[C@@H](Cc2c[nH]c3ccccc23)C(=O)OCc2ccccc2)c1, the Ki [1] is reported as 3.8 µM and the IC50 [2] is reported as 7.2 µM.

O=C(Cn1cccc(O)c1=O)NCCc1ccc(-c2ccccc2)cc1 showed a Ki [1] of 13 µM and an IC50 [2] of 24.8 µM.

In the case of COc1cccn(CC(=O)NCCc2ccc(-c3ccccc3)cc2)c1=S, the Ki [1] is reported as 8.7 µM and the IC50 [2] is reported as 16.7 µM.

With CCCC[C@H](N)C(=O)NNc1ccc(C(=O)N[C@@H](Cc2c[nH]c3ccccc23)C(=O)OCc2ccccc2)cc1 the Ki [1] was 1.3 µM and the IC50 [2] was 2.5 µM.

With N[C@@H](CCc1ccccc1)C(=O)NNc1ccc(C(=O)N[C@@H](Cc2c[nH]c3ccccc23)C(=O)OCc2ccccc2)cc1 the IC50 [2] was 2.5 µM.

With O=C(Cn1cccc(O)c1=O)N[C@@H](Cc1c[nH]c2ccccc12)C(=O)OCc1ccccc1 the Ki [1] was 5.7 µM and the IC50 [2] was 10.9 µM.
